From patent publication US20260206757A1, “METHODS OF CONTROLLING UNDESIRABLE PLANTS WITH PPO HERBICIDES AND COMBINATIONS IN HERBICIDE TOLERANT CROP PLANTS” (BASF AGRO B.V., priority 2022, published 2026) come the findings set out here.

For one series, the system named is HELAN Pacino. Put plainly: Greenhouse experiment, crop safety of sunflower. To be noted: BBCH 12-14, Flumioxazin 0.5, Bifenox 168 g ai/ha, scale 0 to 100%. It counts as in vivo, Helianthus annuus. On the procedure: (§1) For the post emergence treatment, the plants were first grown to the 2 to 4 leaf stage (GS 12/14). The plants were cultivated due to their individual requirements at 10-25° C. and 20-35° C. The plants were irrigated as required.
(§2) Here, the herbicidal compositions were suspended or emulsified in water as distribution medium and sprayed using finely distributing nozzles. 1% methylated seed oil (MSO) has been added as adjuvant to each of the solo and mixture treatments.
(§3) In the greenhouse experiments, the herbicidal activity for the individual herbicidal compositions (solo and mixture applications) was assessed 20/21 days after treatment (DAT).
(§4) The evaluation for the damage on undesired weeds caused by the chemical compositions was carried out using a scale from 0 to 100%, compared to the untreated control plants. Here, 0 means no damage and 100 means complete destruction of the plants.

A further series relates to Polygonum aviculare. Put plainly: Greenhouse experiment, post emergence herbicidal activity. It counts as in vivo. To be noted: POLAV, BBCH 12-14, Flumioxazin 4, Bifenox 168 g ai/ha. The procedure:
as §1, §2, §3, §4

In another series the test system is Sorghum halepense. Described as above. It counts as in vivo. Conditions: SORHA, BBCH 12-14, Saflufenacil 4, Bifenox 168 g ai/ha. On the procedure:
as §1, §2, §3, §4

The subject of the next series is Ambrosia artemisiifolia. The description is as above. It counts as in vivo. Conditions: AMBEL, BBCH 12-14, Saflufenacil 1, Bifenox 168 g ai/ha. On the procedure:
as §1, §2, §3, §4

In a further series the test system is Papaver rhoeas. The series is described as above. Conditions: PAPRH. It counts as in vivo. The procedure:
as §1, §2, §3, §4

A further series deals with Convolvulus arvensis. Described as above. It counts as in vivo. To be noted: CONAR, BBCH 12-14, Saflufenacil 1, Bifenox 168 g ai/ha. The procedure: as §1, §2, §3, §4
The test system of the next series is Mercuralis annua. The series is described as above. It counts as in vivo. Conditions: MERAN, BBCH 12-14, Saflufenacil 0.5, Bifenox 168 g ai/ha. The procedure:
as §1, §2, §3, §4

Another series concerns Sonchus arvensis. The description is as above. It counts as in vivo. Conditions: SONAR, BBCH 12-14, Flumioxazin 0.5, Bifenox 168 g ai/ha. The procedure:
as §1, §2, §3, §4

The next series concerns Portulaca oleracea. Described as above. Conditions: POROL, BBCH 12-14, Flumioxazin 4, Bifenox 168 g ai/ha. It counts as in vivo. On the procedure:
as §1, §2, §3, §4

The next series relates to Abutilon theophrasti. Described as above. It counts as in vivo. To be noted: ABUTH. On the procedure:
as §1, §2, §3, §4

Another series has as its system Chenopodium album. Described as above. It counts as in vivo. To be noted: CHEAL, BBCH 12-14, Flumioxazin 1, Bifenox 168 g ai/ha. On the procedure:
as §1, §2, §3, §4

The test system of the next series is HELAN w F(383)I. Put plainly: Greenhouse experiment, crop safety of PPO inhibitor tolerant sunflower. It counts as in vivo, Helianthus annuus. To be noted: BBCH 12-14, Flumioxazin 0.5, Bifenox 168 g ai/ha, scale 0 to 100%. On the procedure:
as §1, §2, §3, §4

Structures are written as SMILES.

As for `COC(=O)c1cc(Oc2ccc(Cl)cc2Cl)ccc1[N+](=O)[O-]` [Bifenox, Methyl 5-(2,4-dichlorophenoxy)-2-nitrobenzoate], the “Observed crop damage 21 days after treatment” value in the series with HELAN Pacino was found to be 15%; in the series with HELAN w F(383)I, 5%. The “% Herbicidal activity” value in the series on Polygonum aviculare is 20%; in the series on Sorghum halepense, 10%; with Ambrosia artemisiifolia it was 60%; with Papaver rhoeas (BBCH 12-14, Flumioxazin 0.5, Bifenox 168 g ai/ha) it was 10%; with Papaver rhoeas (BBCH 12-14, Saflufenacil 0.5, Bifenox 168 g ai/ha), 5%; with Convolvulus arvensis it was 75%. In addition, the “% Herbicidal activity” value in the series on Mercuralis annua turned out to be 55%; in the series on Sonchus arvensis it was 30%; with Portulaca oleracea it was 10%; in the series with Abutilon theophrasti (BBCH 12-14, Flumioxazin 2, Bifenox 168 g ai/ha), 55%; with Abutilon theophrasti (BBCH 12-14, Saflufenacil 1, Bifenox 168 g ai/ha), 80%; with Chenopodium album it was 20%.
